Measurements reported in the METLIN SMRT retention time set (Domingo-Almenara et al. 2019).

Assay: gradient 5% acetonitrile 3 min, to 50% in 2 min, to 85% in 15 min, held 3 min, 100 µL/min
Details: column: Zorbax Extend-C18 2.1 x 50 mm; eluents: water / acetonitrile, 0.1% formic acid
Summary of the method: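 The system's dead and dwell volumes were 40 μL and 900 μL, with a Zorbax Extend-C18 column (2.1 × 50 mm, 1.8 μm) run at 100 μL/min in water and acetonitrile containing 0.1% formic acid each. Pure standards were analyzed in mixtures of ~100 molecules by HPLC–quadrupole time-of-flight mass spectrometry in positive and negative ionization mode. Retention time was assigned from computationally picked, manually inspected adduct peaks.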

Compound	RP-LC retention time
O=C(NCC1CC(=O)N(c2ccc3c(c2)OCO3)C1)c1ccccc1F (centres undefined)	664 s
COc1ccc(Cl)cc1NC(=O)N(C)CCc1noc(COc2ccccc2)n1	1010 s
CCC(C)NC(=O)Cn1ncc2c(c1=O)N(C)C(=O)CS2 (centres undefined)	606 s
Cc1cnc(C2CN(Cc3cccc(C#N)c3)C2)n1Cc1ccccc1	582 s
C=CCOc1ccnc(-c2ccccc2)n1	1110 s
CC(=O)c1ccc(NC(=O)C(C)Oc2cc(-c3ccccc3)c3c(C)nn(C)c3n2)cc1 (centres undefined)	990 s
CCCn1cc(S(=O)(=O)NCc2ccccc2)c2cccnc21	863 s
Cc1nc2cc(N3CC(C(=O)Nc4ccc(F)cc4C)CC3=O)ccc2o1 (centres undefined)	718 s
COc1ccc(Cn2c(=O)c3sccc3n(Cc3nc(-c4ccc(F)cc4)no3)c2=O)cc1	1080 s
COc1ccc(N2CC(c3nc(-c4ccc(C(F)(F)F)cc4)no3)CC2=O)cc1 (centres undefined)	1040 s
COCCNC(=O)Cn1c(N2CCCC2)nc(COC)cc1=O	570 s
Cc1nc(-c2noc(-c3ccc(F)cc3)n2)cn1CC(=O)NCc1cccs1	814 s
CCn1cc(C(=O)NCc2ccc3c(c2)OCO3)c2cccnc21	755 s
O=C(CCc1nc(-c2cccnc2)no1)NCCc1c[nH]c2ccccc12	709 s
CN(C)C(=O)c1ccc2c(c1)N(CC(=O)Nc1ccc(F)cc1)C(=O)CS2	704 s
CCC(c1cccs1)N1C(=O)[C@H]2CN(S(=O)(=O)c3ccc(C)c(C)c3)C[C@H]2C1=O (some centres undefined)	1070 s
CCc1noc(-c2ccc(-n3cnc(C(=O)NC(C)CC)c3)nc2)n1 (centres undefined)	828 s
COc1ccc(-c2noc(CN3N=NC4C(=O)N(c5ccc(C)c(F)c5)C(=O)C43)n2)c(OC)c1 (centres undefined)	844 s
CN1C(=O)C(C)(C)COc2cc(NS(=O)(=O)Cc3cccc(Cl)c3)ccc21	880 s
CC(C)NC(=O)c1ccc2c(c1)nc(CN(C)C(=O)Nc1ccc3c(c1)OCO3)n2C	606 s
CCCCN(C)C(=O)c1sc(-c2cn(C(C)C)c3ncccc23)nc1C	1010 s

Compound	RP-LC retention time
CC(O)c1ccc(-c2ccc(CNCCCn3ccnc3)o2)cc1 (centres undefined)	513 s
CSc1ccc(-c2noc(Cn3nc(-c4ccccc4)ccc3=O)n2)cc1	1040 s
COc1cccc(OC)c1OCCNCC1CSc2ccccc2O1 (centres undefined)	815 s
O=C(NCCCn1nc(-c2ccc(F)cc2)ccc1=O)Nc1cc(Cl)ccc1Cl	566 s
O=C(CSc1ccc(-c2ccccn2)nn1)Nc1ccc(F)c(F)c1	789 s
CCOC(=O)c1sc(NC(=O)c2cc(C)n(C)n2)nc1-c1ccccc1	928 s
CCn1c(C(=O)Nc2ccc(C)c(C)c2)cc2sc(Cl)cc21	1300 s
Cc1cc(C)c(-c2noc(C)n2)c(NC(=O)c2cc(F)cc(F)c2)n1	787 s
CNC(=O)CN(C)C(=O)c1cc2c(s1)N(C)CCCC2	686 s
CC1=NS(=O)(=O)N(Cc2ccccc2)C=C1C(=O)OCc1noc(-c2ccccc2C)n1	1170 s
COc1ccc(-c2nn3c(CSc4ccccc4)nnc3s2)cc1OC	882 s
Cc1nnc(-c2ccc3ccn(CC(=O)Nc4nccs4)c3c2)o1	707 s
COc1ccc(-c2noc(-c3ncn4c3COC(c3ccc(F)cc3)C4)n2)c(OC)c1 (centres undefined)	954 s
Cc1c(C(=O)NC(C)C)cnn1-c1ccc(-c2nc(C(C)(C)C)no2)cn1	1020 s
Cc1sc(NC(=O)Cc2ccccc2)nc1-c1ccc2c(c1)NC(=O)CO2	830 s
O=C(Nc1ccccc1)Oc1ccc[nH]c1=O	650 s
COc1ccc(-c2cn3c(CC(=O)Nc4ccc(Cl)cn4)csc3n2)cc1OC	715 s
Cc1cc(NC(=O)CN2C(=O)c3ccccc3C2=O)n(-c2ccccc2)n1	709 s
CC(C)NC(=O)c1ccc(-c2nc3cc(NS(=O)(=O)c4cc(F)cc(F)c4)ccc3n2C)cc1	718 s
CC(C)(C)c1csc(-c2csc(S(=O)(=O)NCc3cccs3)c2)n1	1180 s

The next lines start with the values.

RP-LC retention time	Compound
794 s	O=C(c1cc(C2CC2)[nH]n1)N1CC(F)(F)C[C@H]1c1nc(C2CC2)no1
643 s	CCOc1ccc(NC(=O)C2CCCN(C)C2)cc1 (centres undefined)
678 s	C[C@@H]1CN(C(=O)c2ccoc2)C[C@H]1c1nc(-c2ccncc2)no1
775 s	O=C(Nc1sc2c(c1C(c1ccccn1)N1CCN(c3ccccn3)CC1)CCCC2)c1ccco1 (centres undefined)
705 s	CCc1ccc(NC(=O)Cn2c(C(C)C)nc3c(c2=O)CCN(Cc2ccccc2)C3)cc1
786 s	CCN1CCN(S(=O)(=O)c2cccc(-c3nc(-c4ccc(C)cc4)no3)c2)CC1
550 s	COCCN1CC(CO)C2(CCN(Cc3ccc(F)c(Cl)c3)CC2)C1 (centres undefined)
715 s	COc1ccc(NC(=O)C2CCN(S(=O)(=O)c3ccc4c(c3)NC(=O)CO4)CC2)cc1OC
838 s	Cc1noc(-c2ccc(OC3CN(C(=O)Nc4cccc(F)c4)C3)cc2)n1
755 s	Cn1nccc1C(=O)N1CCC(c2noc(-c3ccccc3)n2)C1 (centres undefined)
1070 s	O=C(NC12CC3CC(CC(C3)C1)C2)C1CCN(S(=O)(=O)c2cccs2)CC1
775 s	COc1ccc(CNC2=NCCNC23CCN(S(=O)(=O)c2ccc(C)c(C)c2)CC3)cc1
941 s	O=C(C1CCC1)N1CCc2sc(S(=O)(=O)Nc3cccc(Cl)c3)cc2C1
615 s	CN1CCC(OC2CCN(C(=O)c3ccc(Br)cc3)CC2)CC1
683 s	O=C(C1CCN(Cc2cc3ccccc3n2Cc2ccccc2)CC1)N1CCOCC1
714 s	O=C(CN1C(=O)COc2cc(Cl)ccc21)NC1CC1
662 s	CCOc1ccc(S(=O)(=O)N2CCCC(C(=O)NCCO)C2)cc1 (centres undefined)
736 s	Cc1cc(N(C)C)nc(N2CCN(C(=O)c3ccc(C(C)(C)C)cc3)CC2)n1
561 s	COc1ccc(C(=O)c2cnc3ccc(OC)cc3c2N2CCN(C)CC2)cc1
668 s	O=C(C1CC1)N1CCC2(CCCCO2)CC1
1020 s	CCc1nc(-c2csc(S(=O)(=O)N3CCCC(C(=O)Nc4ccc(C#N)cc4)C3)c2)no1 (centres undefined)
765 s	CCOC(=O)c1c(C)[nH]c(C(=O)N2CCC(CC(=O)N(C)Cc3ccco3)CC2)c1C
1120 s	CCN1C(=O)COc2cc(-c3noc(C(=O)NCCC4=CCCCC4)n3)ccc21
627 s	O=C(c1cccs1)N1CCCC(c2nn[nH]n2)C1 (centres undefined)

RP-LC retention time	Compound
592 s	OCCN1CCN(c2ncnc3c2cnn3-c2cccc(Cl)c2)CC1
1030 s	CC(C)Cc1cc(-c2nn3c(COc4ccc(Br)cc4)nnc3s2)n[nH]1
850 s	COc1ccccc1CCN1CC(=O)N(c2cccc(C)c2)[C@@H]2CS(=O)(=O)C[C@@H]21
656 s	COc1ccc(NC(=O)N2CCN(CC(=O)c3c(C)n(C)c4ccccc34)CC2)cc1
1180 s	CCCn1cc(C(=O)NCC(C)C)c(S(=O)(=O)N2CCN(c3ccccc3OCC)CC2)n1
682 s	CC1CCCN(C(=O)c2nc(-c3ccnc(N4CCCC4)c3)no2)C1 (centres undefined)
569 s	O=C(NCCN1CCCCCC1)c1csc(-c2ccnc(N3CCOCC3)c2)n1
920 s	CC(C)C(NC(=O)c1ccco1)C(=O)N1CCC(c2noc(-c3ccccc3)n2)CC1 (centres undefined)
980 s	O=C(CN1C(=O)C2CCCCN2c2ccc(S(=O)(=O)N3CCCCC3)cc21)NC1CCCC1 (centres undefined)
515 s	Cc1cccc2nnc(N3CCN(C(=O)c4cccnc4)CC3)n12
610 s	O=C(CN1C(=O)CSc2ccc(C(=O)N3CCCCC3)cc21)NCCCN1CCCCC1
651 s	O=C(NC1CCCCCCC1)C1CCN(C(=O)c2cc(-c3cccnc3)n[nH]2)CC1
861 s	COc1ccc(S(=O)(=O)N2C[C@@H]3C[C@H]2C[C@@H]3NC(=O)c2ccccc2)cc1Cl
567 s	CCOC(=O)c1c(C)[nH]c(C(=O)N2CCCC(C(=O)NCCN3CCN(CC)CC3)C2)c1C (centres undefined)
611 s	COCCN1CCC2(CC1)CN(Cc1ccccc1OC(C)C)Cc1ccccc1O2
914 s	CCOC(=O)c1ccccc1NC(=O)CSc1cc(N2CCCC2)ncn1
805 s	COc1cccc(N2CCN(c3ccnc(SCC(=O)Nc4ccc(Cl)cc4)n3)CC2)c1
811 s	Cc1nn(-c2cc(N3CCCCC3)ncn2)c(C)c1CCC(=O)NCc1ccco1
817 s	CC(C)Cn1cc(CCNC(=O)C2CCCCC2)c2cccnc21
570 s	COc1cc2ncc(C(=O)c3ccc(C)c(C)c3)c(N3CCN(C)CC3)c2cc1OC
706 s	Cc1cc(C)cc(NC(=O)N2CC(c3nc(C)no3)C3(CCOCC3)C2)c1 (centres undefined)
655 s	CCc1cccc(NC(=O)Cn2ncc3c(N4CCN(c5ccccn5)CC4)ncnc32)c1
1170 s	Cn1cccc1C(=O)N1CC(Oc2ccc(-c3nc(-c4ccccc4)no3)cc2)C1
775 s	O=C(C1=CN(c2ccc(F)c(F)c2)c2cc(Cl)ccc2S1(=O)=O)N1CCOCC1
